Laboratory results from the NIST ThermoML archive (doi:10.1021/acs.jced.6b00460).

Assay: xn = mol fraction of the nth substance listed
Conditions: 101 kPa, Liquid; for speed of sound: Sing-around technique in a fixed-path interferometer; for mass density: Vibrating tube method

CCCCCCCC[n+]1ccccc1.[Cl-] [N-octylpyridinium chloride] + O
Conditions	mass density, 308.15 K [kg/m3]	mass density, 318.15 K [kg/m3]	speed of sound, 308.15 K [m/s]	speed of sound, 318.15 K [m/s]
x2 = 0.0625	1128.68	1122.77	1483.2	1452.1
x2 = 0.1156	1128.57	1122.56	1484.1	1453.2
x2 = 0.2085	1128.29	1122.18	1485.3	1456.7
x2 = 0.2545	1128.08	1121.95	1486.2	1458.4
x2 = 0.306	1127.76	1121.63	1488	1461.8
x2 = 0.4127	1126.71	1120.54	1491.7	1464.8
x2 = 0.4534	1126.09	1119.9	1493.7	1466.1
x2 = 0.4995	1125.19	1118.95	1495	1469.4
x2 = 0.6103	1121.68	1115.24	1499.8	1473.8
x2 = 0.6508	1119.68	1113.12	1501.8	1477.2
x2 = 0.6962	1116.7	1110.01	1504.9	1481.8
x2 = 0.7542	1111.3	1104.41	1507.1	1487.1
x2 = 0.8086	1103.65	1096.63	1509.4	1493.7
x2 = 0.8512	1094.75	1087.7	1511.3	1497.9
x2 = 0.9009	1078.75	1071.93	1513.2	1505.5
x2 = 0.9485	1052.47	1046.38	1515.5	1515.2
